Experiment [1] has as its target T1, NPPase from barley leaves (Hordeum vulgare, UniProt Q687E1).
T1 sequence (Q687E1 19-368): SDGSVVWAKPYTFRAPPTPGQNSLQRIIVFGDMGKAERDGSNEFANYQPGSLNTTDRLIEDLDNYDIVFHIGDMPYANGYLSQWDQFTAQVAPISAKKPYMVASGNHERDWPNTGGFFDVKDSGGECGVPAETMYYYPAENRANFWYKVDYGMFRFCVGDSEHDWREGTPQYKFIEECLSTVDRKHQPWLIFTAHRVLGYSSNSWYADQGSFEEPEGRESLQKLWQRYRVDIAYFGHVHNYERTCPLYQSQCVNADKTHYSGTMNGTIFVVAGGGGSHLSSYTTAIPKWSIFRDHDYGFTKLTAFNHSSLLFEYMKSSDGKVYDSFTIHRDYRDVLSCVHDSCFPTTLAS
The experiment can be described thus: Enzymatic test of soluble NPPase from barley leaves: kinetic parameters, substrate specificity, effectors. Conditions: for effect on NPPase activity (inhibition) / hydrolysis by NPPase (substrate recognition): qualitative; for Vmax: Vmax in % in relation to ADPG, NPPase from barley leaves; for Km: substrate of NPPase from barley leaves.

For experiment [2], the target named is NPPase from rice leaves (Oryza sativa, UniProt Q0X0G2). The experiment can be described thus: Kinetic parameters and substrate specificity of the NPPase from rice leaves. The settings on record: substrate of NPPase from rice leaves.
Sequence of NPPase from rice leaves (Q0X0G2 26-623 limits assumed): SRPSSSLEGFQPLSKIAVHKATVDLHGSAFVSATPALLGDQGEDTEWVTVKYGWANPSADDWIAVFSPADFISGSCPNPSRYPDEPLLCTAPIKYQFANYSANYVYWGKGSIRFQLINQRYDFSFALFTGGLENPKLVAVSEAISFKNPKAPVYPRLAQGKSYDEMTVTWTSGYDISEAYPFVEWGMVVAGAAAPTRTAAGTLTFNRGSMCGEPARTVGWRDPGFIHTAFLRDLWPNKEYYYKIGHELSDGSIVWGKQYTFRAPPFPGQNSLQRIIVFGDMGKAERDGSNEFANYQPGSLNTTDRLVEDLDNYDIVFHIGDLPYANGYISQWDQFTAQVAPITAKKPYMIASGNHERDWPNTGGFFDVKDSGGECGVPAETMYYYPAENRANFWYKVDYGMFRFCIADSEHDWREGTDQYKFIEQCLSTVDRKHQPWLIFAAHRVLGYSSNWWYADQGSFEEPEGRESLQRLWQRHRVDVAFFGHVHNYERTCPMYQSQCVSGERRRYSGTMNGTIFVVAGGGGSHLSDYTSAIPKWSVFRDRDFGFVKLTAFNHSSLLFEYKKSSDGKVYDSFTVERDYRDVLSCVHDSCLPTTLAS

For `O=C(O)[C@H](O)COP(=O)(O)O` [3-phosphoglycerate], in experiment [1], the “effect on NPPase activity (inhibition)” value is on record as “inhibited” and the “hydrolysis by NPPase (substrate recognition)” value (“hydrolysis by NPPase” for short) is “does not hydrolyse”.

For `Nc1ncnc2c1ncn2[C@@H]1O[C@H](COP(=O)(O)OP(=O)(O)O[C@H]2O[C@H](CO)[C@@H](O)[C@H](O)[C@H]2O)[C@@H](O)[C@H]1O` [ADPG, ADPglucose], in experiment [1], the Vmax is on record as 100% and the “hydrolysis by NPPase” value was “catalyses the hydrolysis”.

Turning to `Nc1ncnc2c1ncn2[C@@H]1O[C@H](COP(=O)(O)OP(=O)(O)O)[C@@H](O)[C@H]1O` [ADP], in experiment [1], the Vmax is given as 40% and the “effect on NPPase activity (inhibition)” value is “inhibited”.

Regarding `Nc1ncnc2c1ncn2[C@@H]1O[C@H](COP(=O)(O)OP(=O)(O)O[C@H]2O[C@H](CO)[C@@H](O)[C@H](O)[C@@H]2O)[C@@H](O)[C@H]1O` [ADPmannose, ADP-mannose], the Vmax in experiment [1] is 30%.

Consider `Nc1ncnc2c1ncn2[C@@H]1O[C@H](COP(=O)(O)O)[C@@H](O)[C@H]1O` [AMP], for which, in experiment [1], the “effect on NPPase activity (inhibition)” value is “inhibited” and the “hydrolysis by NPPase” value is given as “does not hydrolyse”.

On to `Nc1ncnc2c1ncn2[C@@H]1O[C@H](COP(=O)(O)OS(=O)(=O)O)[C@@H](O)[C@H]1O` [APS, adenosine 5′-phosphosulphate], for which the Vmax in experiment [2] is recorded as 282 μmol min^−1 (mg protein)^−1.

For the compound `Nc1ccn([C@@H]2O[C@H](COP(=O)(O)OP(=O)(O)O[C@H]3O[C@H](CO)[C@@H](O)[C@H](O)[C@H]3O)[C@@H](O)[C@H]2O)c(=O)n1` [CDPG, CDP-glucose], the Vmax in experiment [1] is 114%.

Regarding `O=C[C@H](O)[C@@H](O)[C@H](O)[C@H](O)COP(=O)(O)O` [G6P, glucose-6-phosphate], the “hydrolysis by NPPase” value in experiment [1] was “does not hydrolyse”.

As to `Nc1nc2c(ncn2[C@@H]2O[C@H](COP(=O)(O)OP(=O)(O)O[C@H]3O[C@H](CO)[C@@H](O)[C@H](O)[C@H]3O)[C@@H](O)[C@H]2O)c(=O)[nH]1` [GDP-glucose], the “hydrolysis by NPPase” value in experiment [1] was “recognizes”.

For `Nc1nc2c(ncn2[C@@H]2O[C@H](COP(=O)(O)OP(=O)(O)O[C@H]3O[C@H](CO)[C@@H](O)[C@H](O)[C@@H]3O)[C@@H](O)[C@H]2O)c(=O)[nH]1` [GDPmannose, GDP-mannose], the Vmax in experiment [1] turned out to be 30%.

As for `NC(=O)c1ccc[n+]([C@@H]2O[C@H](COP(=O)([O-])OP(=O)(O)OC[C@H]3O[C@@H](n4cnc5c(N)ncnc54)[C@H](OP(=O)(O)O)[C@@H]3O)[C@@H](O)[C@H]2O)c1` [NADP^+], in experiment [1], the Vmax entry is listed as “n.q” and the Km result is reported as “n.q”.

With `NC(=O)c1ccc[n+]([C@@H]2O[C@H](COP(=O)(O)OP(=O)(O)OC[C@H]3O[C@@H](n4cnc5c(N)ncnc54)[C@H](O)[C@@H]3O)[C@@H](O)[C@H]2O)c1` [NAD^+], the Vmax in experiment [1] was 100%.

With `Nc1ncnc2c1ncn2[C@@H]1O[C@H](COP(=O)(O)O)[C@@H](O)[C@H]1O` [PAP, adenosine-5′-phosphate], in experiment [1], the Vmax entry is “n.q” and the Km entry is “n.q”.

Take `O=[N+]([O-])c1ccc(OP(=O)(O)O)cc1` [PNPP]: the Vmax in experiment [1] is 100%.

Turning to `O=P(O)(O)OP(=O)(O)O` [PPi, inorganic pyrophosphate], the Vmax in experiment [2] is reported as 176 μmol min^−1 (mg protein)^−1.

For the compound `O=[N+]([O-])c1ccc(OP(=O)(O)Oc2ccc([N+](=O)[O-])cc2)cc1` [bis-PNPP, bis-paranitrophenylphosphate], in experiment [1], the Vmax came out at 100% and the “hydrolysis by NPPase” value was “hydrolyses”.

Consider `[O]=[Mo](=[O])([O-])[O-]` [molybdate], for which the “effect on NPPase activity (inhibition)” value in experiment [1] is recorded as “strongly inhibited”.

In the case of `OCCS` [β-mercaptoethanol], the “effect on NPPase activity (inhibition)” value in experiment [1] is “not affected”.

With ADP-ribose [ADPribose], in experiment [1], the Vmax stood at 100%.

In the case of arsenate, the “effect on NPPase activity (inhibition)” value in experiment [1] was “strongly inhibited”.

The values are drawn from patent US20060242739A1, “Plant nucleotide-sugar pyrophosphatase/phosphodiesterase (nppase), method of obtaining same and use of same in the production of assay devices and in the production of transgenic plants” (Universidad Publica De Navarra, priority 2002, published 2006).
